From patent US20170305912A1, “PROCESS FOR THE PREPARATION OF 3-PHENYL/HETEROARYL-6-PHENOXY-8-ALKYLAMINO-IMIDAZO[1,2-B]PYRIDAZINE DERIVATIVES” (Bayer Pharma Aktiengesellschaft, priority 2014, published 2017)

Experiment: Particle size distribution in a dry dispersion (Sympatec Helos, method AM-PE 69)
Type: physicochemical
Conditions: cumulative undersize distribution by volume
Protocol: It turned out that the crystalline form of N-cyclopropyl-4-{6-(2,3-difluor-4-methoxyphenoxy)-8-[(3,3,3-trifluorpropyl)amino]imidazo[1,2-b]pyridazin-3-yl}-2-methylbenzamide prepared by the method of the present invention comprising steps (a) to (g), supra, is characterized by an advantageous particle size distribution. […] The particle size distribution was determined in a dry dispersion using the device “Sympatec Helos” and the method “AM-PE 69” (Pharmdoss).
Batch Nos. 1 to 5 were prepared by the method of the present invention comprising steps (a) to (c), supra. In case of Batch Nos. 2 to 5, the preparation method comprised the additional steps (d) to (g) (in case of Batch No. 1 steps (d) to (g) were not applied).
It can be clearly seen that the particles of Batch Nos. 2 to 5 are smaller than the particles of Batch No. 1 and the distribution is more uniform. In case of Batch Nos. 2 to 5, further micronization of the particles might not be necessary in order to increase the solubility or bioavailability of the final drug.

[1] = listed as 2, prepared with steps (d) to (g)
[2] = prepared without steps (d) to (g)
[3] = listed as 4, prepared with steps (d) to (g)
[4] = listed as 5, prepared with steps (d) to (g)

| Molecule | X10 (particle size distribution) [1] [μm] | X50 (particle size distribution) [1] [μm] | X90 (particle size distribution) [1] [μm] | X10 (particle size distribution) [2] [μm] | X50 (particle size distribution) [2] [μm] | X90 (particle size distribution) [2] [μm] | X10 (particle size distribution) [3] [μm] | X50 (particle size distribution) [3] [μm] | X90 (particle size distribution) [3] [μm] | X10 (particle size distribution) [4] [μm] | X50 (particle size distribution) [4] [μm] | X90 (particle size distribution) [4] [μm] | X10 (particle size distribution) (prepared with steps (d) to (g)) [μm] | X50 (particle size distribution) (prepared with steps (d) to (g)) [μm] | X90 (particle size distribution) (prepared with steps (d) to (g)) [μm] |
| --- | --- | --- | --- | --- | --- | --- | --- | --- | --- | --- | --- | --- | --- | --- | --- |
| 6,8-Bis(2,3-difluoro-4-methoxyphenoxy)-3-iodoimidazo[1,2-b]pyridazine [Example 1] | 1.4 | 5.3 | 36.1 | 2.0 | 18.2 | 249.0 | – | – | – | – | – | – | – | – | – |
| COc1ccc(Oc2cc(Oc3ccc(OC)c(F)c3F)c3ncc(-c4ccc(C(=O)NC5CC5)c(C)c4)n3n2)c(F)c1F [Example 3, 4-[6,8-bis(2,3-difluoro-4-methoxyphenoxy)imidazo[1,2-b]pyridazin-3-yl]-N-cyclopropyl-2-methylbenzamide] | – | – | – | – | – | – | 1.3 | 4.2 | 13.2 | 1.2 | 4.0 | 12.4 | 1.2 | 4.1 | 9.9 |
